A short description of data set [1]: Toxicity in mouse 3T3L1 cells. It counts as cell-based. To be noted: 3T3-L1 cells.
Data set [2] relates to 3T3-L1. As to the kind of experiment: Inhibition of fat accumulation in mouse 3T3L1 cells assessed as liberated triglyceride after 7 days. In kind it is functional, cell-based. To be noted: 3T3-L1, 168 h.
The test system of data set [3] is 3T3-L1. The data set can be described thus: Inhibition of fat accumulation in mouse 3T3L1 cells assessed as liberated triglyceride after 7 days relative to (-)-ternatin. It counts as functional.

Take `CC[C@H](C)[C@H]1NC(=O)[C@@H](C)NC(=O)[C@@H](C)N(C)C(=O)[C@H](C)N(C)C(=O)[C@H](CC(C)C)NC(=O)[C@H](CC(C)C)N(C)C(=O)[C@H](C)N(C)C1=O`: the values for the 50% inhibitory concentration (IC50) in data set [1] and in data set [2] were above 130 µM and 14 µM, respectively.

For `CC[C@H](C)[C@H]1NC(=O)[C@@H](COCc2ccccc2)NC(=O)[C@H](C)N(C)C(=O)[C@H](C)N(C)C(=O)[C@H](CC(C)C)NC(=O)[C@H](CC(C)C)N(C)C(=O)[C@H](C)N(C)C1=O`, the half-maximal inhibitory concentration (IC50) (in general, the concentration that inhibits the measured activity by half) was found to be 89 µM in data set [1] and 5.9 µM in data set [2].

Consider `CCCCCC[C@@H]1NC(=O)[C@H](CC(C)C)N(C)C(=O)[C@H](C)N(C)C(=O)[C@@H]([C@@H](C)CC)NC(=O)[C@@H]([C@H](O)C(C)C)NC(=O)[C@@H](C)N(C)C(=O)[C@H](C)N(C)C1=O`, for which the IC50 in data set [1] and in data set [2] was above 130 µM throughout. The Activity in data set [3] was 0.002.

Regarding `CC[C@H](C)[C@H]1NC(=O)[C@@H]([C@H](O)C(C)C)NC(=O)[C@@H](C)N(C)C(=O)[C@H](C)N(C)C(=O)[C@H](C)NC(=O)[C@H](CC(C)C)N(C)C(=O)[C@H](C)N(C)C1=O`, the IC50 in data set [1] and in data set [2] was above 130 µM each time. The Activity in data set [3] is listed as 0.002.

With `CC[C@H](C)[C@H]1NC(=O)[C@@H]([C@H](O)C(C)C)NC(=O)[C@@H](C)N(C)C(=O)[C@H](C)N(C)C(=O)[C@H](CC(C)C)NC(=O)[C@H](C)N(C)C(=O)[C@H](C)N(C)C1=O`, the IC50 in data set [1] is above 29 µM; in data set [2] it was 1.6 µM.

Turning to `CCCCCC[C@H]1C(=O)N[C@@H](CC(C)C)C(=O)N(C)[C@@H](C)C(=O)N(C)[C@H](C)C(=O)N[C@H]([C@H](O)C(C)C)C(=O)N[C@H]([C@@H](C)CC)C(=O)N(C)[C@@H](C)C(=O)N1C`, the IC50 in data set [1] turned out to be 2.1 µM; in data set [2] it was 0.38 µM.

For `CC(C)C[C@@H]1NC(=O)[C@H](CC(C)C)N(C)C(=O)[C@H](C)N(C)C(=O)[C@@H](C)NC(=O)[C@@H]([C@H](O)C(C)C)NC(=O)[C@@H](C)N(C)C(=O)[C@H](C)N(C)C1=O`, the IC50 in data set [1] and in data set [2] was above 130 µM throughout. The Activity in data set [3] was found to be 0.002.

Take `CCCCCC[C@H]1C(=O)N(C)[C@H](C)C(=O)N[C@H]([C@H](O)C(C)C)C(=O)N[C@H]([C@@H](C)CC)C(=O)N(C)[C@@H](C)C(=O)N(C)[C@@H](CC(C)C)C(=O)N[C@@H](CC(C)C)C(=O)N1C`: the IC50 in data set [1] was 0.96 µM; in data set [2], 0.12 µM.

With `CCCCCC[C@@H]1C(=O)N[C@H]([C@H](O)C(C)C)C(=O)N[C@H]([C@@H](C)CC)C(=O)N(C)[C@@H](C)C(=O)N(C)[C@@H](CC(C)C)C(=O)N[C@@H](CC(C)C)C(=O)N(C)[C@@H](C)C(=O)N1C`, the IC50 turned out to be 0.066 µM in data set [1] and 0.016 µM in data set [2].

In the case of `CCCCCC[C@H]1C(=O)N(C)[C@@H](CC(C)C)C(=O)N[C@@H](CC(C)C)C(=O)N(C)[C@@H](C)C(=O)N(C)[C@H](C)C(=O)N[C@H]([C@H](O)C(C)C)C(=O)N[C@H]([C@@H](C)CC)C(=O)N1C`, the concentration for half-maximal inhibition (IC50) in data set [1] was above 12 µM; in data set [2], 1.1 µM.

In the case of `CCCCCC[C@H]1NC(=O)[C@@H]([C@H](O)C(C)C)NC(=O)[C@@H](C)N(C)C(=O)[C@H](C)N(C)C(=O)[C@H](CC(C)C)NC(=O)[C@H](CC(C)C)N(C)C(=O)[C@H](C)N(C)C1=O`, the half-maximal inhibitory concentration (IC50) in data set [1] was above 130 µM; in data set [2] it was 46 µM.
